Laboratory results reported in patent US8168656B2, “Indoleacetic acid and indenacetic acid derivatives as therapeutic agents with reduced gastrointestinal toxicity” (Vanderbilt University, priority 2009, dated 2012).
Where a chain is given by its changes, count along the chain named.

What was measured:
[1] = target: T1, mCOX-2^V349A (Mus musculus, UniProt Q05769, V335A); experiment: Time-dependent IC50 COX inhibition assay; format: biochemical, murine
T1 construct: made in house; host or cells: Sf9 insect cells (baculovirus, pVL1393)
T1 sequence (Q05769 18-604 V335A): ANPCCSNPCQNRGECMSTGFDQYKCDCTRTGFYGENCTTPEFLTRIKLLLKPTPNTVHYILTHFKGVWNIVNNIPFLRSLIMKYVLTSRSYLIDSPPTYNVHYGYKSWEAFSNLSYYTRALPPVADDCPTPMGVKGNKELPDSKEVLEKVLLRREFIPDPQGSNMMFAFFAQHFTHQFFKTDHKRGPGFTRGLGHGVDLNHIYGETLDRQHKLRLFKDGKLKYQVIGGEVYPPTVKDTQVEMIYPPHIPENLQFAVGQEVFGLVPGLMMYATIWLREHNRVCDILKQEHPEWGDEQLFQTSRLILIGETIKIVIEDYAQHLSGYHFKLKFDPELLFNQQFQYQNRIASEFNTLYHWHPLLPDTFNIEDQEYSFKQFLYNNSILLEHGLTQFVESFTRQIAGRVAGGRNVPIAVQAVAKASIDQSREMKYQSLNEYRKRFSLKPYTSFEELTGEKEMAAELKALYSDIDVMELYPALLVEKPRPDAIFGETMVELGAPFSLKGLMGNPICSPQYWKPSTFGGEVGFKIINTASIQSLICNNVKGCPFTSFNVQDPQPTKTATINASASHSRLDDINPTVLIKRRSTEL
Protocol: These mutated genes were used to assemble baculoviral constructs for large-scale expression in Sf9 cells. Purification of the expressed COX-2 protein was performed through traditional cellular fractionation and classical column chromatography. Activity or inhibition assays were performed in 100 mM Tris-HCl buffer containing 500 μM phenol, with hematin-reconstituted protein. Quantification of cyclooxygenase activity was performed by monitoring substrate (arachidonate or oxygen) consumption in a thermostatted cuvette at 37° C. using a polarographic electrode with a 5300 oxygen monitor (Yellow Springs Instrument Co. Inc., Yellow Springs, Ohio, United States of America). All inhibitors and substrates were solubilized in dimethyl sulfoxide (DMSO). Activity or inhibition assays were performed in 100 mM Tris-HCl buffer containing 500 μM phenol, with hematin-reconstituted protein. Maximal reaction velocity data were obtained from the linear portion of the oxygen uptake curves, and the data were analyzed by nonlinear regression with Prism 4.0 (GraphPad Software, San Diego, Calif., United States of America).
Time-dependent inhibition reactions were performed by pre-incubating the inhibitor and enzyme for 17 minutes at 25° C., followed by 3 minutes at 37° C. prior to the addition of 50 μM [1-^14C]-AA for 30 seconds at 37° C. Assays were terminated and analyzed for substrate consumption by thin layer chromatography as previously described (Kalgutkar et al., 2000a).
Maximal reaction velocity data were obtained from the linear portion of the oxygen uptake curves, and the data were analyzed by nonlinear regression. Instantaneous inhibition assays were performed with substrate and inhibitor added prior the initiation of the reaction by addition of protein. Time-dependent screening assays were performed by pre-incubating the inhibitor and enzyme for 17 minutes at 25° C., followed by 3 minutes at 37° C. prior to the addition of 50 μM [1-^14C]-arachidonic acid (AA) for 30 seconds at 37° C.
Assays were terminated and analyzed for substrate consumption by thin layer chromatography. […] Time-dependent COX inhibition reactions were pre-incubated at 37° C. for varying lengths of time (0-30 minutes) with various concentrations of inhibitor. All reactions were performed with [1-^14C]-AA for 30 seconds at 37° C.; reactions were terminated and analyzed as described above.
The COX reaction was allowed to proceed for 30 seconds before termination.

[2] = target: T2, wild type mCOX-2 (Mus musculus, UniProt Q05769); experiment: Steady-state quenching of COX intrinsic fluorescence (apo-protein); format: binding, murine
T2 construct: made in house; host or cells: Sf9 insect cells (baculovirus, pVL1393)
T2 sequence (Q05769 18-604): T1 sequence (Q05769 18-604 V335A) with A318V
Protocol: Steady-state measurements were performed at 37° C. in a 3.5 ml fluorescence cuvette with continuous stirring. […] Data were collected over 240 or 360 seconds with 2-second integration times. The reversibility of quenching was analyzed in the same manner, with subsequent addition of 50 μM AA as competitor. The ligands were dissolved in DMSO before further dilution into buffer. The organic component in the buffer was below 0.4%.
This assay provided a method to directly monitor the binding of INDO and DM-INDO to COXs. Various concentrations of INDO and DM-INDO were added to apo-proteins and the rate of fluorescence decrease was monitored over time. After the mixture reached equilibrium, 50 μM of AA was added as competitor to monitor the reversibility of binding. The kinetic data for quenching were analyzed in the same manner as those for inhibition. For clarity, the equilibrium constant for the first step of fluorescence quenching is referred to as Kd, and k2 and k−2 from the second step of quenching are represented by k′2 and k′−2, respectively.

With COc1ccc2c(c1)c(CC(=O)O)cn2C(=O)c1ccc(Cl)cc1 [DM-INDO, 2-Des-methylindomethacin] the “inhibition in the time-dependent IC50 assay” value [1] was “less than 20%”, the IC50 ([1]; 20 min pre-incubation, then 50 μM AA for 30 s) was > 16 µM and the “k′−2^b” value ([2]; fluorescence increase from competition with 50 μM AA) was 0.007 ± 0.001 s⁻¹. The Kd ([2]; fluorescence quenching) was 16 ± 9 µM, the “k′2” value ([2]; fluorescence quenching) was 0.16 ± 0.04 s⁻¹ and the “k′−2” value ([2]; fluorescence quenching (decay)) was 0.006 ± 0.002 s⁻¹.
